Biological target: T1, MyD88^TIR (Homo sapiens, UniProt Q99836)
T1 construct: MyD88 (residues 148–296); 6xHis; made in house; host or cells: E. coli BL21 (DE3)
Assay: T‐Surf phage library (P8 and P3) selection against MyD88^TIR, four rounds, NGS read counts
Type: binding
Settings: for P8_MyD88 Rank (after) / P8_MyD88 Rank (before): P8 library; for P3_MyD88 Rank (after) / P3_MyD88 Rank (before): P3 library; for Population: P8_MyD88 pool: P8 T-Surf phage library, 4th round of selection against MyD88 TIR, share of NGS reads
Method in brief: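 Four panning rounds on TIR domain adsorbed at 5 µg mL^−1; binding 1 h at 20–22 °C, elution with 100 mM HCl. Output: NGS read counts of round‐4 pools versus naïve library.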

[1] = P8_MyD88: rank by count after grouping
[2] = P8_MyD88: rank by count before grouping
[3] = P8_MyD88: rank by NGS read count after grouping
[4] = P8_MyD88: rank by NGS read count before grouping
[5] = selection against MyD88, rank by count after grouping
[6] = selection against MyD88, rank by count before grouping
[7] = selection against MyD88 TIR, rank by count after grouping
[8] = selection against MyD88 TIR, rank by count before grouping
[9] = 4R selection against MyD88, rank after grouping
[10] = 4R selection against MyD88, rank before grouping
[11] = selection against MyD88, rank after grouping
[12] = selection against MyD88, rank before grouping
[13] = P3_MyD88: rank by count after grouping
[14] = P3_MyD88: rank by count before grouping

T1 sequence (Q99836 148-296): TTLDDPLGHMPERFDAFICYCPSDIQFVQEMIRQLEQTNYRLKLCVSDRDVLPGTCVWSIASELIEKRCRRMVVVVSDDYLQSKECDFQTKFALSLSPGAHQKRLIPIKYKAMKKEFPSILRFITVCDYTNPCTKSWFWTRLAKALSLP

PQVLGWFYERLVSLIL
Rank (after) [1]: 447
Rank (before) [2]: 3414

PQVVACFFQRLESMIL
Rank (after) [3]: 871
Rank (before) [4]: 3403

PRDLEWFYEHLVSLIL
P8_MyD88 Rank (after) [5]: 736
P8_MyD88 Rank (before) [6]: 3409

PRDLEWLYERLVSLIL
P8_MyD88 Rank (after) [7]: 278
P8_MyD88 Rank (before) [8]: 3410

PSDVRKKTGSLAKAFA
P3_MyD88 Rank (after) [7]: 285
P3_MyD88 Rank (before) [8]: 2735

PSEVRKQTGSLAKAAL
P3_MyD88 Rank (after) [9]: 593
P3_MyD88 Rank (before) [10]: 2756

PSEVRKQTGSLAKALCD
P3_MyD88 Rank (after) [11]: 488
P3_MyD88 Rank (before) [12]: 2753

PSEVRKQTGSLAKALRRNCC
P3_MyD88 Rank (after) [7]: 254
P3_MyD88 Rank (before) [8]: 1130

PSEVRNRPAAWRKRL
P3_MyD88 Rank (after) [7]: 195
P3_MyD88 Rank (before) [8]: 1127

PSEVRVVDDGSVSPLEM
P3_MyD88 Rank (after) [7]: 211
P3_MyD88 Rank (before) [8]: 1126

PVAHDLSKKMKIFATI
Rank (after) [13]: 474
Rank (before) [14]: 2698

PYLLWVFDDEDGQELF
P8_MyD88 Rank (after) [7]: 199
P8_MyD88 Rank (before) [8]: 291

QDLEQFYERLISRILQ
Rank (after) [1]: 113
Rank (before) [2]: 121
Population: 0.0181%

QDLEQFYERLVSLI
P8_MyD88 Rank (after) [5]: 685
P8_MyD88 Rank (before) [6]: 3567

QDLGWFYERLFSQM
P8_MyD88 Rank (after) [5]: 735
P8_MyD88 Rank (before) [6]: 3564

QDLGWFYERLISQILK
Rank (after) [1]: 108
Rank (before) [2]: 114
Population: 0.02%

QDLGWFYERLVSLF
P8_MyD88 Rank (after) [9]: 590
P8_MyD88 Rank (before) [10]: 3565

QEVEGWRDALTKVASM
P3_MyD88 Rank (after) [7]: 226
P3_MyD88 Rank (before) [8]: 2893

QGDPSYRLTLHYRDVN
P3_MyD88 Rank (after) [9]: 591
P3_MyD88 Rank (before) [10]: 2866

QGGDEITPSLFKAFKD
P3_MyD88 Rank (after) [7]: 265
P3_MyD88 Rank (before) [8]: 1150

QLIGCGNTFFRWKKKIR
Rank (after) [3]: 1002
Rank (before) [4]: 3572

QLIQQWIELHLHQLH
P8_MyD88 Rank (after) [9]: 588
P8_MyD88 Rank (before) [10]: 3585

QLIQQWIELHLHQLHL
P3_MyD88 Rank (after) [11]: 499
P3_MyD88 Rank (before) [12]: 2880

QQISLVQLKVLEESHV
P8_MyD88 Rank (after) [9]: 648
P8_MyD88 Rank (before) [10]: 3604

QQVVRYRLEIVRVTKL
P3_MyD88 Rank (after) [5]: 738
P3_MyD88 Rank (before) [6]: 2882

QSAWALNQLLQIIDWH
P8_MyD88 Rank (after) [7]: 196
P8_MyD88 Rank (before) [8]: 269

QWALEELRLIMELHSV
Rank (after) [1]: 158
Rank (before) [2]: 175
Population: 0.00809%

QYLRWPEDFQDVGWFL
Rank (after) [1]: 144
Rank (before) [2]: 161
Population: 0.00925%

QYSDTLLEHTANFRM
Rank (after) [13]: 392
Rank (before) [14]: 2842

QYSDTLLEHTSKFPA
P3_MyD88 Rank (after) [11]: 492
P3_MyD88 Rank (before) [12]: 2837

QYSGTPLAHTSKFPDE
P3_MyD88 Rank (after) [9]: 605
P3_MyD88 Rank (before) [10]: 2832

QYSHTLLAHTSKFPDE
Rank (after) [13]: 432
Rank (before) [14]: 2847

RELGVVDDGSVSALEM
Rank (after) [13]: 410
Rank (before) [14]: 2692

RERPVGAQRGVRSLAT
Rank (after) [13]: 469
Rank (before) [14]: 3286

RFGGDTFLEYLVLISM
P8_MyD88 Rank (after) [5]: 765
P8_MyD88 Rank (before) [6]: 3753

RFWERLRPALKERLP
Rank (after) [13]: 449
Rank (before) [14]: 2551

RFWERLRYMIPEVSHQ
P3_MyD88 Rank (after) [9]: 598
P3_MyD88 Rank (before) [10]: 2545

RFWESQRYMKPNVSHT
P3_MyD88 Rank (after) [5]: 708
P3_MyD88 Rank (before) [6]: 2552

RGFHWTEWENFVDIED
Rank (after) [3]: 968
Rank (before) [4]: 3399

RISAFHKQLVMAVKAQ
P3_MyD88 Rank (after) [9]: 674
P3_MyD88 Rank (before) [10]: 2608

RISAFHQQLLMALKTQ
P3_MyD88 Rank (after) [5]: 706
P3_MyD88 Rank (before) [6]: 2609

RISAFHQQLVIALEAQ
P3_MyD88 Rank (after) [9]: 650
P3_MyD88 Rank (before) [10]: 2595

RISAFHQQLVMALKERLP
P3_MyD88 Rank (after) [7]: 263
P3_MyD88 Rank (before) [8]: 1105

RISAFHQQLVMALNTQ
P3_MyD88 Rank (after) [9]: 614
P3_MyD88 Rank (before) [10]: 2599

RKGDLISDELRIPLEE
P3_MyD88 Rank (after) [11]: 526
P3_MyD88 Rank (before) [12]: 2656

RLLKWKEALHQFHSLVG
P3_MyD88 Rank (after) [7]: 277
P3_MyD88 Rank (before) [8]: 2580

RSFREGLWRLLELRKK
P3_MyD88 Rank (after) [9]: 629
P3_MyD88 Rank (before) [10]: 2693

RSFREGPWRLLELSKK
Rank (after) [13]: 414
Rank (before) [14]: 2694

RSFRKGLWRLLELSNK
Rank (after) [13]: 431
Rank (before) [14]: 2695

RSSAFQQQLVMALKAQ
P3_MyD88 Rank (after) [9]: 643
P3_MyD88 Rank (before) [10]: 2616

RTLFENLWESVYNISQ
P3_MyD88 Rank (after) [5]: 690
P3_MyD88 Rank (before) [6]: 2633

RTLLENLWASVDISHK
P3_MyD88 Rank (after) [5]: 732
P3_MyD88 Rank (before) [6]: 2643

RVAHEISTKMKIFATI
P3_MyD88 Rank (after) [11]: 559
P3_MyD88 Rank (before) [12]: 2682

RYIMPHPQELIQQKQP
P3_MyD88 Rank (after) [7]: 249
P3_MyD88 Rank (before) [8]: 2561

SAASDDFWDGLIRMIE
P8_MyD88 Rank (after) [11]: 502
P8_MyD88 Rank (before) [12]: 3704

SAAYDDIWERLNRMIE
Rank (after) [1]: 481
Rank (before) [2]: 3737

SAAYGDYWVRQIRMIE
Rank (after) [1]: 469
Rank (before) [2]: 3707

SAAYYEFGERLIGRVE
Rank (after) [3]: 873
Rank (before) [4]: 3705

SADYDDVGDRLIRMIE
Rank (after) [3]: 1024
Rank (before) [4]: 3747

SCFCEELCCVLELSKK
P3_MyD88 Rank (after) [9]: 656
P3_MyD88 Rank (before) [10]: 2938

SDLRVVDDGSVSPLAM
P3_MyD88 Rank (after) [5]: 711
P3_MyD88 Rank (before) [6]: 3005

Source: PMC11714206, “Massively Parallel Screening of Toll/Interleukin‐1 Receptor (TIR)‐Derived Peptides Reveals Multiple Toll‐Like Receptors (TLRs)‐Targeting Immunomodulatory Peptides” (Advanced Science, 2024)
